From patent US10322154B2, “Sandalwood oil and its uses related to clostridium infections” (Santalis Pharmaceuticals, Inc., priority 2012, dated 2019)
Values joined by “and” are separate entries in the source; they are usually repeats but may differ in a detail not shown here. Equal entries are not always repeated.

Tested on: Clostridium difficile
Test: C. difficile challenge in mice, qualitative fecal pellet analysis
Assay type: in vivo, C57BL/6 mouse
Set-up: key: +: positive (for the presence of C. difficile in the stool); −: negative
Details: 50 mg/kg oral gavage Days 0-4, per animal
Description: Challenge Preparation: Challenge preparation was performed inside an anaerobe glove box in IW 305 in order to minimize oxygen exposure. A seed stock of the challenge organism (C. difficile) was thawed and added to the appropriate growth medium on Day −1. The organism was incubated anaerobically overnight (18-24 hrs) at 37° C. On the day of challenge (Day 0), the culture was diluted in DPBS to achieve a target concentration of 10^4 CFU/dose. Syringes with attached gavage needles were loaded with challenge material and placed on ice for transfer to the animal group.
Polymer Carrier: The polymer carrier used in these studies was a composition comprising polyethylene glycol 8000 (PEG8000) and hydroxypropyl methylcellulose acetate succinate (HPMCAS-LF). HPMCAS-LF was used to make the polymer insoluble at low pH. The formulation comprising a polymer carrier and sandalwood oil comprised about 50% PEG8000, about 41.67% sandalwood oil and about 8.33% HPMCAS-LF.
60 female C57BL\6 mice that weighed approximately 26-30 grams and were approximately 7-11 weeks old on Day 0 were used. The C57BL/6 mouse is susceptible to C. difficile and used extensively as a good animal model for the evaluation of antibacterial therapeutics. Treatments were administered via oral gavage and/or intraperitoneally in order to mimic treatment in humans. The challenge was administered via oral gavage as this is both an effective and minimally invasive route of administration that mimics the natural route of infection.
The body weights required for randomization were determined in Week −1 (the lowest body weights were excluded from randomization). After randomization, mice were assigned to one of six groups as indicated below in Table 6:
Treatment Procedure: All treatment doses were vortexed before administration to animals. On Days −6, −5 and −4, animals were administered the antibiotic cocktail via oral gavage at a volume of 0.3 mL. Treatments were administered ±1 hour from the initial day of dosing. On Day −1, animals were administered Clindamycin (10 mg/kg) via intraperitoneal (IP) at a volume of 0.4 mL. Post-challenge on Days 0-4, animals were administered the appropriate test article as listed in the table above via oral gavage at a volume of 0.3 mL. Treatments were administered ±1 hour from the initial day of dosing.
Challenge: On Day 0, mice were challenged via oral gavage with Clostridium difficile at a volume of 0.2 mL. The bacterial suspension was supplied (and maintained) on ice in pre filled syringes and inverted prior to administration to each group. […]
Microbiology Analysis: To isolate C. difficile, fecal pellets or swabs were solubilized in PBS and then cultured onto CDSA. […] Results were recorded as positive (for the presence of C. difficile in the stool) or negative.

## CN[C@H](CC(C)C)C(=O)N[C@H]1C(=O)N[C@@H](CC(N)=O)C(=O)N[C@H]2C(=O)N[C@H]3C(=O)N[C@H](C(=O)N[C@H](C(=O)O)c4cc(O)cc(O)c4-c4cc3ccc4O)[C@H](O)c3ccc(c(Cl)c3)Oc3cc2cc(c3O[C@@H]2O[C@H](CO)[C@@H](O)[C@H](O)[C@H]2O[C@H]2C[C@](C)(N)[C@H](O)[C@H](C)O2)Oc2ccc(cc2Cl)[C@H]1O [Vancomycin]
Day 1
  Qualitative Fecal Pellet Analysis (presence of C. difficile in the stool): −
Day 2, 50 mg/kg
  Qualitative Fecal Pellet Analysis (presence of C. difficile in the stool): − (9×) and +
Day 3
  Qualitative Fecal Pellet Analysis (presence of C. difficile in the stool): −
Day 4
  Qualitative Fecal Pellet Analysis (presence of C. difficile in the stool): −
